These compounds were tested on T1, Lip3 (assay: p-nitrophenol release at […] nm, Lineweaver-Burk). Details: 0.1 M Tris-HCl pH 8.0, 35 °C, 3 % acetonitrile.
T1 construct: catalytic triad Ser150, Asp207, His267; primers encode N-terminal MNNYIID and C-terminal CLKSLL before the His tag
Type: biochemical, uncultured bacterium

| SMILES | K M (M.10^-3) [M∙10^−3] |
| --- | --- |
| CCCCC(=O)Oc1ccc([N+](=O)[O-])cc1 [pNP-pentanoate] | 1.52 ± 0.20 |
| CC(=O)Oc1ccc([N+](=O)[O-])cc1 [pNP-acetate] | 2.38 ± 0.56 |
| CCCC(=O)Oc1ccc([N+](=O)[O-])cc1 [pNP-butanoate] | 1.05 ± 0.16 |

The remaining lines, values ahead:

| K M (M.10^-3) [M∙10^−3] | SMILES |
| --- | --- |
| 0.36 ± 0.04 | CCCCCCCC(=O)Oc1ccc([N+](=O)[O-])cc1 [pNP-octanoate] |
| 1.03 ± 0.12 | CCCCCCCCCC(=O)Oc1ccc([N+](=O)[O-])cc1 [pNP-decanoate] |
